Measured values as given in ChEMBL document CHEMBL1156829 (Proc Natl Acad Sci U S A, 2008).

Key:
[1] = NOVARTIS: Cytotoxicity against human hepatocellular carcinoma cell line (Huh7); assay type: toxicity, cell-based, Huh-7; conditions: Huh7 cells (hepatocellular carcinoma cell line)
Plasmodium falciparum [2] = assay: NOVARTIS: Inhibition of Plasmodium falciparum W2 (drug-resistant) proliferation in erythrocyte-based infection assay; assay type: functional, organism-based; conditions: Plasmodium falciparum, W2; read-out: EC50
Plasmodium falciparum [3] = assay: NOVARTIS: Inhibition of Plasmodium falciparum 3D7 (drug-susceptible) proliferation in erythrocyte-based infection assay; assay type: functional, organism-based; conditions: Plasmodium falciparum, 3D7

SMILES	CC50 [1]	EC50 (Plasmodium falciparum [2])	EC50 (Plasmodium falciparum [3])
O=C1C2C(C(=O)N1Cc1ccccc1)C1(c3ccccc3)C(=O)C2(c2ccccc2)C(c2ccccc2)=C1c1ccccc1 (stereo unspecified)	> 100000 nM	> 12500 nM	822 nM
Cc1ccc(-c2noc(C3CCN(C(=O)Nc4ccc(C#N)cc4)CC3)n2)o1	> 100000 nM	1260 nM	1300 nM
CC(Oc1ccc(Cl)cc1Cl)c1nc(-c2ccc(NC(=O)c3ccco3)cc2)no1 (stereo unspecified)	35600 nM	551 nM	313 nM
Cc1ccn2c(NC(C)(C)CC(C)(C)C)c(-c3ccccc3OC(=O)C3C[C@H]3c3ccccc3)nc2c1 (stereo partly specified)	> 10000 nM	55.3 nM	727 nM
O=C(Nc1ccc(CC2=NCCCN2)cc1)c1ccc(C(=O)Nc2ccc(CC3=NCCCN3)cc2)cc1	> 10000 nM	128 nM	127 nM
CC(C)CN(C(C)C(=O)NC(CN1CCCC1)c1ccccc1)S(=O)(=O)Cc1ccccc1 (stereo unspecified)	> 10000 nM	76.7 nM	60.2 nM
COc1cc2nc(NCc3ccccn3)n3nc(-c4ccccc4)nc3c2cc1OC	> 100000 nM	1910 nM	3770 nM
CCOP(=O)(OCC)C(O)c1ccc(C)cc1 (stereo unspecified)	> 10000 nM	> 1180 nM	> 1250 nM
COc1cc(C=NNC(=O)c2cccc3ccccc23)ccc1OCC(N)=O	> 10000 nM	> 989 nM	> 1250 nM
CCCCOc1ccc(C=CC(=O)NCc2ccco2)cc1	> 100000 nM	717 nM	1070 nM
COc1ccc(NC(=O)C2=C(C)Nc3c(C(=O)Nc4ccc(C)cc4)cnn3C2c2cccc(Cl)c2)cc1 (stereo unspecified)	> 100000 nM	924 nM	2510 nM
CN(C)CCCNC1=NC=NC2C=C(Cl)C=CC12 (stereo unspecified)	> 100000 nM	713 nM	290 nM
COc1cc(-c2nc(-c3ccc(Sc4ccccc4)cc3)c(-c3ccccc3)[nH]2)cc(OC)c1O	64300 nM	1640 nM	1280 nM
CCCC(=O)Oc1ccccc1-c1nc2cc(C)ccn2c1NC(C)(C)CC(C)(C)C	> 100000 nM	1890 nM	3550 nM
O=C(c1ccc2c(c1)OCO2)N1CCOC(c2ccc(Cl)cc2)C1 (stereo unspecified)	> 100000 nM	4110 nM	1630 nM
CCOC(=O)CCC(=O)Oc1ccccc1-c1nc2ccccn2c1NC(C)(C)CC(C)(C)C	> 10000 nM	178 nM	1060 nM
CC(C)CNC(=O)c1cnc(NCCC2CCCN2C)nc1NC1CCCC1 (stereo unspecified)	> 10000 nM	1140 nM	908 nM
Cc1cccnc1NC(=O)CCCC(=O)O	> 10000 nM	788 nM	> 1070 nM
COc1ccc(C2CC(=O)C3=C(C2)NC(C)=C(C(=O)OC(C)C)C3c2cccc(Cl)c2Cl)cc1OC (stereo unspecified)	> 87300 nM	18.1 nM	67.6 nM
CCOC(=O)C1=C(C)NC2=C(C(=O)C(C(=O)OCC)C(c3cccc(OC)c3)C2)C1c1cc(OC)c(OC)c(OC)c1 (stereo unspecified)	> 100000 nM	494 nM	1090 nM
CC1Cc2ccccc2N1C(=O)Cn1c(=O)oc2ccccc21 (stereo unspecified)	> 10000 nM	> 1250 nM	> 907 nM
Cc1nc(N2CCCCC2)c2c(C)c(C(=O)N3CCN(c4ccccc4F)CC3)sc2n1	> 10000 nM	1300 nM	> 1540 nM
COc1ccc(-c2c[n+](-c3ccccc3)c3n2CCS3)cc1	> 10000 nM	784 nM	778 nM

SMILES	CC50 [1]	EC50 (Plasmodium falciparum [2])	EC50 (Plasmodium falciparum [3])
CCOC(=O)c1cnc2ccc(OCC)cc2c1NCCN(CC)CC	> 10000 nM	> 988 nM	832 nM
N#Cc1ccc2c(c1)nc1c3ccc4c5c(ccc(c(=O)n21)c53)C(=O)NC4=O	> 100000 nM	867 nM	3940 nM
O=[N+]([O-])c1ccc(-n2cccc2C=NNc2ncnc3sc4c(c23)CCCC4)cc1	7450 nM	1410 nM	2780 nM
CC1=C(CC(=O)c2ccc(Cl)cc2)C(=O)c2ccccc2C1=O	46600 nM	1020 nM	2740 nM
O=C(c1ccccc1F)N1CCN(Cc2ccccc2C(F)(F)F)CC1	> 100000 nM	2470 nM	511 nM
COc1ccc(CN(Cc2cc3cc(OC)c(OC)cc3[nH]c2=O)C(=S)NCCc2ccc(OC)c(OC)c2)cc1	35700 nM	1040 nM	5580 nM
C/C(Cl)=C/C[N+]1(CC#Cc2cccc3ccccc23)CCOCC1	> 10000 nM	449 nM	672 nM
CC(C)(C)CC(C)(C)Nc1c(-c2ccccc2OC(=O)c2ccc(C(F)(F)F)cc2)nc2ccccn12	> 10000 nM	64 nM	670 nM
Cc1c2c(cc3c1ccc1ccccc13)C[N+]1(CCCCC1)C2	> 100000 nM	657 nM	1290 nM
O=C(Nc1ccccc1)c1ccccc1OCC(O)Cn1c2ccccc2c2ccccc21 (stereo unspecified)	> 100000 nM	267 nM	282 nM
COc1ccccc1CNC(=O)CCC1N=C2c3ccccc3N=C(SCC(=O)Nc3ccc(F)cc3)N2C1=O (stereo unspecified)	> 100000 nM	2510 nM	5290 nM
COc1cc(OC)c(NC(=O)C2c3ccccc3C(=O)N(C)C2c2ccc(OC)c(OC)c2)cc1Cl (stereo unspecified)	> 100000 nM	328 nM	983 nM
CCOc1ccc2ncc(S(=O)(=O)c3ccc(OC)cc3)c(N3CCN(C)CC3)c2c1	> 100000 nM	2080 nM	100 nM
Clc1ccc(-c2c[n+](-c3ccccc3)c3n2CCS3)cc1	> 100000 nM	236 nM	308 nM
CCCCN(CC)CCNC(=O)c1cc2c(-c3ccc(Cl)cc3)nn(C)c2s1	39800 nM	320 nM	89.8 nM
Cc1ccccc1Nc1sc(C(=O)c2ccc([N+](=O)[O-])cc2)c(N)c1C(=O)Nc1ccccc1	> 10000 nM	> 1540 nM	> 1200 nM
Cc1nc([P+](c2ccccc2)(c2ccccc2)c2ccccc2)c(N2CCCCC2)o1	7120 nM	967 nM	761 nM
CN(C)CCN1CCN(c2ccnc3cc4ccccc4cc23)CC1	1550 nM	369 nM	108 nM
CCN(CC)CCCNC(=S)N(CCN(CC)CC)Cc1cc2ccc(C)c(C)c2[nH]c1=O	51100 nM	> 2610 nM	3280 nM
CCN(CCN1CCN(S(=O)(=O)c2cc(Cl)ccc2Cl)CC1)CC1=CCC2CC1C2(C)C (stereo unspecified)	> 10000 nM	289 nM	1790 nM
Clc1cccc(CNC2CCN(CCc3ccccc3)CC2)c1	3040 nM	801 nM	298 nM
COc1ccc(S(=O)(=O)N=C2C=C(Nc3ccccc3)C(=O)c3ccccc32)cc1	12000 nM	122 nM	93.3 nM
CC1CN(C(=O)C(Cc2c[nH]c3ccccc23)NC(=O)C(c2ccccc2)c2ccccc2)CCN1C(=O)NCc1ccccc1 (stereo unspecified)	> 10000 nM	> 391 nM	> 1250 nM

SMILES	CC50 [1]	EC50 (Plasmodium falciparum [2])	EC50 (Plasmodium falciparum [3])
Cc1ccc(Cn2c(SCc3ccc(C(=O)NCCc4ccccc4)cc3)nc3ccncc32)cc1	> 100000 nM	174 nM	700 nM
COc1ccc(CN(CC2CCN(C(=O)c3ccccc3Cl)CC2)C(=O)c2ccc(Cl)cc2Cl)cc1	24300 nM	3310 nM	7250 nM
CNC1=C(N(C(C)=O)c2ccc(Br)cc2)C(=O)c2ccccc2C1=O	> 10000 nM	156 nM	162 nM
CC(C)CNc1nc(NCCCN(C)C)ncc1C(=O)NCc1ccccc1	> 10000 nM	> 1290 nM	316 nM
CCCCC(=O)Oc1ccccc1-c1nc2ccccn2c1NC(C)(C)CC(C)(C)C	1920 nM	< 7.1 nM	296 nM
CCN(c1ccc(F)cc1)S(=O)(=O)c1ccc2[nH]cc(C(=O)NCCC(C)C)c(=O)c2c1	> 10000 nM	> 1150 nM	> 1250 nM
COc1ccc(-c2cc(C(=O)Nc3cc(Oc4ccc(NC(C)=O)cc4)cc([N+](=O)[O-])c3)c3ccccc3n2)cc1	> 100000 nM	2110 nM	> 12500 nM
CCOC(=O)C1=C(C)NC2=C(C(=O)CC(C)(C)C2)C1c1ccc(Cl)cc1 (stereo unspecified)	> 100000 nM	67.6 nM	116 nM
COc1cccc(CNC(=O)[C@@H]2CNC[C@H]2c2ccc(C(F)(F)F)cc2)c1	23800 nM	77.5 nM	108 nM
CCOc1ccc(-c2cc(C)[n+](CCO)c(-c3ccc(OCC)cc3)c2)cc1	> 100000 nM	352 nM	1080 nM
CCOC(=O)C1=NNC2C(=O)N(c3cccc(C)c3C)C(=O)C12 (stereo unspecified)	> 10000 nM	563 nM	> 1250 nM
O=C(NNC(=O)c1csnn1)c1ccc(C(F)(F)F)cc1	> 100000 nM	792 nM	641 nM
Cc1ccc2c(c1)c(-c1ccccc1)c(-c1ccccc1)n2CC(O)CN1CCN(Cc2ccccc2)CC1 (stereo unspecified)	> 100000 nM	84.5 nM	824 nM
O=C(CNCCc1ccccc1)NC(c1ccccc1)c1ccccc1	45400 nM	623 nM	5960 nM
COc1ccc(Nc2nc(NN=Cc3cccc(F)c3)nc(Nc3ccc([N+](=O)[O-])cc3)n2)cc1	> 100000 nM	704 nM	662 nM
CCOC(=O)C1=C(C)NC(=Cc2cc(C)n(-c3cccc(Br)c3)c2C)C1=O	> 100000 nM	805 nM	2880 nM
O=C1/C(=N\c2cccc(O)c2)C(N2CCCCC2)=C(O)c2ccccc21	> 100000 nM	227 nM	212 nM
CC1=C(C(=O)OCCC(C)C)C(c2ccccc2)C(C(=O)OCCC(C)C)=C(C)N1	> 10000 nM	> 1630 nM	> 918 nM
CN(CCCNc1ccc(C(=O)Nc2ccc(C(F)(F)F)cc2)cc1[N+](=O)[O-])Cc1ccccc1	> 100000 nM	720 nM	316 nM
CCC(C)NC(=O)c1nn(-c2cccc(OC)c2)c(=O)c2ccccc12 (stereo unspecified)	> 100000 nM	3810 nM	1970 nM
Cc1sc2c(c1C)CN(Cc1ccco1)CN2C(=O)c1ccco1	> 100000 nM	> 6910 nM	> 12500 nM
